Measured values from patent US9078868B2, “Therapeutic agent for accelerating recovery of animal under medical treatment” (UNIVERSITY OF MIYAZAKI, priority 2010, dated 2015).
No end group written: not given here. *: point of attachment. Octanoyl = CCCCCCCC(=O)*

Key:
[1] = system: hospitalized animals (canines and felines) after surgery; assay: Example 1: single dose of ghrelin in hospitalized animals after surgery, parameters before vs after administration; type: in vivo; details: for Body temperature: animals improved/animals evaluated / Biochemical tests: animals improved/animals evaluated / Body temperature: response rate / Activity (vigor): animals improved/animals evaluated / Hematology tests: animals improved/animals evaluated: single dose
Procedure: In these Examples, a canine-derived ghrelin (a peptide compound in which a side chain hydroxyl group of the serine residue at the 3rd position from the amino terminus is acylated with an n-octanoyl group in SEQ ID NO: 1) was used as ghrelin. The canine-derived ghrelin was chemically synthesized and then lyophilized, and a canine-derived ghrelin for administration containing 0.1, 0.3, 0.5, or 1 mg per vial of a canine-derived ghrelin was prepared.
To administer ghrelin to animals, the canine-derived ghrelin was dissolved to a concentration of 1 mg/2 mL in physiological saline and intravenously, subcutaneously, or intramuscularly injected after the dose was adjusted depending on the body weight.
Animals hospitalized in veterinary hospitals, particularly canines and felines, were used for treatment. These animals may or may not have undergone a surgery for treatment. The surgeries performed on the animals were pyometra surgery, surgical removal of a reproductive organ, surgical removal of mammary gland tumor, ovary cyst surgery, liver cell tumor surgery, disc hernia surgery, diaphragmatic hernia surgery, fracture surgery, gastrointestinal tract surgery, and urethroplasty.
Physical conditions in animals with various pathological conditions were examined by measuring parameters including activity (vigor), blood cell test values, biochemical test values, urinalysis, electrolyte tests, body weight, body temperature, the degree of anger or anxiety, respiratory rate, and the like to evaluate the effect of improving physical conditions in the animals. The effect was evaluated by comparing various evaluation parameters before and after administration.
The evaluation parameters used were activity (vigor), body temperature, hematology parameters (blood cell test values), serum biochemistry parameters (biochemical test values), the degree of anger or anxiety, and respiratory rate. […] The degree of anger or anxiety of an animal observed visually by an observer were also evaluated using the following criteria: 1. calm and accustomed to a health care professional, 2. able to be touched by but unaccustomed to a health care professional and restless, 3. wandering around or hiding in the kennel with anxiety, 4. able to be barely touched, and 5. too violent to be touched by a health care professional and tends to bite.
13.2 to 80 μg/kg of a canine-derived ghrelin (chemically synthesized) was administered by an intravenous injection, a subcutaneous injection, or an intramuscular injection (solution for an injection: physiological saline or the like) to 32 animals (canines and felines) after surgery which were hospitalized in veterinary hospitals. The 32 cases of the animals were as follows.
Pyometra surgery and surgical removal of reproductive organ, 18 animals; mammary gland tumor surgery, three animals (including one animal also having pyometra); disc hernia surgery, two animals; surgery for a fracture or a traffic accident injury, three animals; urethroplasty, three animals; gastrointestinal tract surgery, two animals; and pneumothorax surgery, one animal.
Improvement of physical conditions of these animals was evaluated in terms of activity (vigor), body temperature, hematology parameters (blood cell test values), and serum biochemistry parameters (biochemical test values).

[2] = system: animals with poor physical conditions, surgery or no surgery; assay: Example 3-2: improvement after ghrelin in animals which had or had not undergone a surgery; type: in vivo, canines and felines; details: dash = no significant difference
Procedure: A canine-derived ghrelin was repeatedly administered intravenously or subcutaneously to each of the animals with poor physical conditions. The dose of intravenous administration was approximately 5 μg/kg or 10 μg/kg, and the dose of subcutaneous administration was approximately 100 μg/kg. The mean number of doses in repeated administration was approximately four times, and the maximum number of doses was 11 times. The administration period was one to six days.
Evaluation parameters evaluated before and after administration of ghrelin were appetite, quantity of meal, biochemical test values (GOT, GPT, BUN, CRE, CPK, CRP), blood cell test values (white blood cell [WBC], platelet [PLT]), body temperature, activity (vigor), skin, coat, wellness, the degree of anger or anxiety, respiratory rate, and others. These parameters were analyzed together with the results of the animals receiving a single dose (Examples 1 and 2). The analysis results were compiled by disease, such as renal dysfunction, tumor, fracture, and accident (see Table 3-1). Statistical analysis of values before and after administration was performed using a paired t-test.
Ghrelin was administered to animals with poor physical conditions after surgery for the treatment of various pathological conditions, and various parameters indicating physical conditions before and after administration of ghrelin were analyzed. The surgery included urethroplasty, surgery for a fracture, luxation, disc hernia, or diaphragmatic hernia, surgical removal of a tumor, and surgical removal of a reproductive organ due to pyometra.
Meanwhile, ghrelin was administered to animals with poor physical conditions due to various pathological conditions which had not undergone a surgery, and various parameters indicating physical conditions before and after administration of ghrelin were analyzed. The pathological conditions included filariasis, mite infestation, babesiosis, hemobartonellosis, bite, and dermatitis.

[3] = gastrointestinal tract surgery, 2 animals
[4] = pyometra surgery and surgical removal of reproductive organ, 18 animals
[5] = surgical removal of mammary gland tumor, 3 animals
[6] = total, 32 animals after surgery

GSS (n-octanoyl) FLSPEHQKLQQRKESKKPPAKLQPR (GSS(Octanoyl)FLSPEHQKLQQRKESKKPPAKLQPR; listed as Canis familiaris) [ghrelin, chemically synthesized, lyophilized]
Body temperature: animals improved/animals evaluated ([1]; disc hernia surgery, 2 animals): 1/1
Serum creatinine (Cre) value after administration ([1]; example, animal after surgery, before administration 6.0 mg/dL): 1.1 mg/dL
Blood urea nitrogen (BUN) value after administration ([1]; example, animal after surgery, before administration 44.2 mg/dL): 29.3 mg/dL
Total cholesterol (T-CHO) value after administration ([1]; example, animal after surgery, before administration 405 mg/dL): 260 mg/dL
Glutamic pyruvic transaminase (GPT) value after administration ([1]; example, animal after surgery, before administration 180 IU/L): 85 IU/L
Alkaline phosphatase (ALP) value after administration ([1]; example, animal after surgery, before administration 345 IU/L): 286 IU/L
Creatinine phosphokinase (CPK) value after administration ([1]; example, animal after surgery, before administration 1429 IU/L): 955 IU/L
C-reactive protein (CRP) value after administration ([1]; example, animal after surgery, before administration upper limit of measurement): 7.3 mg/dL
White blood cell count after administration ([1]; example, animal after surgery, high count decreased, before administration 44.1×10^3/μL): 17700 µL⁻¹
Platelet count after administration ([1]; example, animal after surgery, low count increased, before administration 13.9×10^4/μL): 585000 µL⁻¹
Red blood cell count after administration ([1]; example, animal after surgery, low count increased, before administration 214×10^4/μL): 3.04e+06 µL⁻¹
Hemoglobin level after administration ([1]; example, animal after surgery, low level increased): 7.7 g/dL
Biochemical tests: animals improved/animals evaluated [1, 3]: 1/1
Body temperature: animals improved/animals evaluated [1, 3]: 1/1
Body temperature: animals improved/animals evaluated ([1]; pneumothorax surgery, 1 animal): 0/1
Body temperature: response rate ([1]; pneumothorax surgery, 1 animal): (0%)
Activity (vigor): animals improved/animals evaluated [1, 4]: 6/7
Biochemical tests: animals improved/animals evaluated [1, 4]: 3/3
Body temperature: animals improved/animals evaluated [1, 4]: 3/4
Hematology tests: animals improved/animals evaluated [1, 4]: 3/4
Activity (vigor): animals improved/animals evaluated ([1]; surgery for fracture or traffic accident injury, 3 animals): 3/3
Activity (vigor): animals improved/animals evaluated [1, 5]: 2/2
Biochemical tests: animals improved/animals evaluated [1, 5]: 1/1
Body temperature: animals improved/animals evaluated [1, 5]: 1/1
Hematology tests: animals improved/animals evaluated [1, 5]: 1/1
Activity (vigor): animals improved/animals evaluated [1, 6]: 11/12
Biochemical tests: animals improved/animals evaluated [1, 6]: 5/6
Body temperature: animals improved/animals evaluated [1, 6]: 5/8
Hematology tests: animals improved/animals evaluated [1, 6]: 4/6
Activity (vigor): animals improved/animals evaluated ([1]; urethroplasty, 3 animals): 1/1
Biochemical tests: animals improved/animals evaluated ([1]; urethroplasty, 3 animals): 1/2
Body temperature: animals improved/animals evaluated ([1]; urethroplasty, 3 animals): 0/1
Body temperature: response rate ([1]; urethroplasty, 3 animals): (0%)
Hematology tests: animals improved/animals evaluated ([1]; urethroplasty, 3 animals): 1/2
BUN: significance (p) of improvement after vs before administration ([2]; no surgery, 24 animals): p < 0.05
GPT: significance (p) of improvement after vs before administration ([2]; no surgery, 24 animals): p < 0.05
Vigor: significance (p) of improvement after vs before administration ([2]; no surgery, 24 animals): p < 0.01
WBC: significance (p) of improvement after vs before administration ([2]; no surgery, 24 animals): p < 0.05
BUN: significance (p) of improvement after vs before administration ([2]; surgery, 70 animals): p < 0.05
Body temperature: significance (p) of improvement after vs before administration ([2]; surgery, 70 animals): p < 0.01
CRE: significance (p) of improvement after vs before administration ([2]; surgery, 70 animals): p < 0.05
Degree of anger: significance (p) of improvement after vs before administration ([2]; surgery, 70 animals): p < 0.01
GOT: significance (p) of improvement after vs before administration ([2]; surgery, 70 animals): p < 0.01
GPT: significance (p) of improvement after vs before administration ([2]; surgery, 70 animals): p < 0.01
PLT: significance (p) of improvement after vs before administration ([2]; surgery, 70 animals): p < 0.05
Respiratory rate: significance (p) of improvement after vs before administration ([2]; surgery, 70 animals): p < 0.05
Vigor: significance (p) of improvement after vs before administration ([2]; surgery, 70 animals): p < 0.01
